Here are results for ten molecules from patent publication US20260224549A1, “COMPOUNDS, COMPOSITIONS, AND METHODS FOR TREATING, AMELIORATING, AND/OR PREVENTING PAIN” (priority 2023, published 2026).

For data set [1] the following is noted: cited from earlier work.
Data set [2] is described as follows: Metabolism in liver microsomes and hepatocytes in vitro. In kind it is in vitro ADME. A general note: Microsomes from liver hold many membrane-bound enzymes, among them those of drug oxidation.
Data set [3] is described as follows: Phase I single ascending dose pharmacokinetics of metabolite Compound II in plasma. In kind it is in vivo, human. The following applies: for AUC(0-t): po; for Tmax: read-out: Tmax, Median.
From the text: The study comprised a single ascending dose (SAD), sequential cohort study, incorporating a food effect (FE) evaluation. Up to 40 subjects were to be studied in 5 cohorts (Cohorts A1 to A5), each cohort consisting of 8 subjects.
The actual blood sampling dates and times relative to dosing time were listed by subject and nominal sampling time, with time deviation calculated, for all subjects with available plasma concentration data.
For PK concentration data, the number of non-missing values, number of below limit of quantification (BLQ) values, arithmetic mean, standard deviation, median, minimum, maximum, coefficient of variation (CV %), geometric mean and geometric coefficient of variation (geo CV %) values was presented.
For PK parameter data, the number of non-missing values, arithmetic mean, standard deviation, median, minimum, and maximum values were presented.
Data set [4] in a line: Solubility in water of salts. In kind it is physicochemical.
Data set [5] is described as follows: Static vapor sorption studies. In kind it is physicochemical. The following applies: for Est. H2O Content (%) / Wt % Change: ambient temperature, 3 weeks, Form A staged. From the text:
Static Vapor Sorption Studies
Static vapor sorption studies were done in hermetic humidity chambers using saturated salts, or environmental humidity chambers to control the temperature and humidity. Data collected during dynamic vapor sorption studies often are not at thermodynamic equilibrium. To gain a better understanding of the water uptake and the critical humidity level of the API, samples of the starting material (i.e., Form A) were monitored in static humidity chambers to allow the sample to equilibrate with atmospheric moisture.
In these studies, water vapor sorption was determined gravimetrically by storing samples in open aluminum dishes. Compound I diphosphate salt lot was used for this study. Samples were stored at 7 different humidity levels at ambient temperature (Table 19). Approximately 50 mg of Form A was staged at each humidity condition. The samples were weighed before placing them in the chamber and then re-weighed after 3 weeks. After re-weighing, the samples were immediately analyzed by XRD to determine whether a change in form had occurred.
The sample stored at 11% RH was an outlier and was therefore omitted from the final isotherm plot. The static isotherm plot is roughly consistent with the DVS isotherm plot (FIG. 12F) with a large moisture uptake at around 40% RH and a maximum uptake between 4 and 5 weight percent.

Data set [6] can be described thus: Thermal and storage stability of salts and forms. The data set is classed as physicochemical. The following applies: for stability at ambient conditions: storage. From the text: On the basis of the DSC data, the acetate salt may be a hydrate.
The amorphous form may be obtained by crystallization from anhydrous solvents or by thermal desolvation of the hydrate. In certain embodiments, the preferred polymorph of Compound I diphosphate is Compound I diphosphate monohydrate (Form A): […]

Data set [7] can be described thus: Hygroscopicity - Dynamic Vapor Sorption (DVS). In kind it is physicochemical. Here is the method: Hygroscopicity—Dynamic Vapor Sorption (DVS)
DVS is a gravimetric technique that measures how quickly and how much of a solvent (water) is sorbed by a sample. The relative humidity or vapor concentration surrounding the sample is varied while the change in mass of the sample is measured. […] The mass values at each relative humidity step are used to generate an isotherm. Isotherms are divided in two components: sorption for increasing humidity steps and desorption for decreasing humidity steps. A plot of kinetic data is also used to show the change in mass and humidity as a function of time.
The samples were analyzed using a TA Q5000 automated dynamic vapor sorption analyzer. The samples were dried at 60° C. over 180 minutes and then cooled to 25° C. with a dry nitrogen purge. The samples were then subjected to 0 to 90% RH, back to 10% RH at 25° C. in 10% RH steps.

The mark [8] stands for this setting: human, metabolite after 200 mg DS (Fasted), single oral dose, plasma.
Setting [9] is: human, metabolite after 400 mg DS (Fasted), single oral dose, plasma.
Setting [10] is: metabolite after 60 mg DS (Fasted), single oral dose, plasma.
Where [11] appears, read: metabolite after 120 mg DS (Fasted), single oral dose, plasma.
[12] abbreviates: metabolite after 200 mg DS (Fasted), single oral dose, plasma.
Where [13] appears, read: metabolite after 400 mg DS (Fasted), single oral dose, plasma.

“Also recorded” adds a separate entry of the source. Where two headings read alike, the source gives them in different places.

What is called pKa is the negative logarithm of the acid dissociation constant. On to `CC1(C)C2CCC1(CS(=O)(=O)O)C(=O)C2` (centres unmarked) [Camphorsulfonic acid], for which, in data set [1] (first value listed), the pKa is 2.2.

On to `O=S(=O)(O)c1ccc2ccccc2c1` [Naphthalene-2-sulfonic acid], for which the pKa in data set [1] (first value listed) is 0.2.

`CCCCCCCCCCCCCCCCCC(=O)O` [Stearic acid]: the pKa in data set [1] (first value listed) is 4.9.

In general, Cmax refers to the highest concentration seen after dosing. By Tmax is commonly meant the time from dosing to the highest level. In the case of `CNC[C@H]1CN(CCc2ccsc2)CC[C@]1(O)c1cccc(C(N)=O)c1` [Compound II, 3-(3S, 4R)-3-((methylamino)methyl)-4-hydroxy-1-(2-(thiophen-3-yl)ethyl)piperidin-4-yl-benzamide], the “metabolite formation in vitro” value in data set [2] was “predominant metabolite of Compound I”. Also, the “MRAUC0-t, metabolite ratio (MEB-373/MEB1170 AUC0-t values), Mean” value in data set [3] (200 mg DS (Fasted), single oral dose, plasma) came to 0.0231; in data set [3] (400 mg DS (Fasted), single oral dose, plasma), 0.0276. For the same molecule, the half-life in data set [3] (human, plasma, oral, 400 mg dose group (n=5), read-out: mean plasma t1/2 (converted)) was 0.902 h; in data set [3] (human, plasma, oral, one individual at 200 mg, read-out: t1/2 (converted)), 2 h; in data set [3] (human, metabolite after 400 mg DS (Fasted), single oral dose, plasma, read-out: t1/2 (terminal plasma half-life), Mean (converted)), 0.902 h. Besides, the AUC(0-t) was determined as 8.77 ng·h/mL in data set [3] (human, plasma, 200 mg, metabolite after 200 mg DS (Fasted), single oral dose, plasma, read-out: AUC0-t (zero to the time of the last quantifiable concentration), Mean); 27.3 ng·h/mL in data set [3] (human, plasma, 400 mg, metabolite after 400 mg DS (Fasted), single oral dose, plasma, read-out: AUC0-last (zero to 24 hours postdose), Mean); 21.1 ng·h/mL in data set [3] (human, plasma, 400 mg, metabolite after 400 mg DS (Fasted), single oral dose, plasma, read-out: AUC0-t (zero to the time of the last quantifiable concentration), Mean). Further, the Cmax in data set [3] (setting [8]) worked out at 7.91 ng/mL; in data set [3] (setting [9]), 12.2 ng/mL. For the same molecule, the Tmax was determined as 2.26 h in data set [3] (setting [8]) and 2 h in data set [3] (setting [9]). The AUC(0-inf) in data set [3] (human, metabolite after 400 mg DS (Fasted), single oral dose, plasma, read-out: AUC0-inf, Mean) was 28.7 ng·h/mL. The “systemic exposures relative to Compound I” value in data set [3] (in vivo) was “very low relative to Compound I”. Besides, the “Tlast, Max” value in data set [3] (setting [10]) amounted to 2.50 h; in data set [3] (setting [11]), 4.00 h; in data set [3] (setting [12]), 4.00 h; in data set [3] (setting [13]), 4.00 h. In addition, the “Tlast, Min” value in data set [3] (setting [10]), in data set [3] (setting [11]), in data set [3] (setting [12]) and in data set [3] (setting [13]) was 2.50 h throughout. The “Tmax, Max” value in data set [3] (setting [11]), in data set [3] (setting [12]) and in data set [3] (setting [13]) was 2.50 h each time. Also, the “Tmax, Min” value in data set [3] (setting [11]) is 2.50 h; in data set [3] (setting [12]) it was 1.00 h; in data set [3] (setting [13]) it was 1.50 h. Besides, the “Tlast (time of last measurable concentration), Median” value in data set [3] (setting [12]) was 3.25 h; in data set [3] (setting [13]), 4.00 h. For the same molecule, in data set [3] (most subjects at doses of 20, 60, and 120 (fed) mg), the plasma concentrations entry is given as “below the limit of assay quantitation”.

Turning to `O=S(=O)(O)c1cccc2c(S(=O)(=O)O)cccc12` [1,5-Naphthalenedisulfonic acid], the pKa in data set [1] (first value listed) is on record as −3.4; in data set [1] (second value listed), −2.6.

Turning to `CN(C)C[C@H]1CN(CCc2ccsc2)CC[C@]1(O)c1cccc(C(N)=O)c1` [Compound I diphosphate, 3-(3S,4R)-3-((dimethylamino)methyl)-4-hydroxy-1-(2-(thiophen-3-yl)ethyl)piperidin-4-yl-benzamide bisphosphate], the aqueous solubility entry in data set [4] is recorded as “high aqueous solubility”. For the same molecule, the “solubility in unbuffered water” value in data set [4] (unbuffered water) is given as “high solubility”. The “Est. H2O Content (%)” value in data set [5] (11% relative humidity) is 3.1%; in data set [5] (22% relative humidity) it was 0.8%; in data set [5] (33% relative humidity), 1.8%; in data set [5] (43% relative humidity) it was 3.9%; in data set [5] (75% relative humidity), 4.1%; in data set [5] (84% relative humidity) it was 4.4%. For the same molecule, the “Est. H2O Content (%)” value in data set [5] (97% relative humidity) was 4.8%. For the same molecule, the “Wt % Change” value in data set [5] (11% relative humidity) is −0.2 Wt %; in data set [5] (22% relative humidity), −2.5 Wt %; in data set [5] (33% relative humidity), −1.5 Wt %; in data set [5] (43% relative humidity), “+0.6 Wt %”; in data set [5] (75% relative humidity), “+0.8 Wt %”; in data set [5] (84% relative humidity) it was “+1.1 Wt %”. Besides, the “Wt % Change” value in data set [5] (97% relative humidity) was “+1.5 Wt %”. Besides, in data set [6] (in words, listed as diphosphate salt), the “stability (thermal, chemical)” value is “more stable; also recorded: improved stability (thermally and chemically) over the other salts”. For the same molecule, in data set [6] (listed as diphosphate salt), the “stability at ambient conditions” value was “stable to storage under ambient conditions”. Besides, the hygroscopicity entry in data set [7] (in words) is on record as “moderately hygroscopic”.

For the molecule `CN(C)C[C@H]1CN(CCc2ccsc2)CC[C@]1(O)c1cccc(C(N)=O)c1` [Form A], the “change of solid state form with humidity” value in data set [5] (XRD after storage at different humidity levels) was “did not change at any humidity level; also recorded: retains its structure in both low and high humidity environments”. In addition, in data set [5] (static isotherm), the “relative humidity of large moisture uptake” value is “around 40 % RH”. Moreover, in data set [6], the “heating withstood by the hydrate” value is ~ 70 °C and the “stability at ambient conditions” value was “stable at ambient conditions”. The molecule also came in with a maximum water/moisture uptake in data set [7] (at 90% RH) of 4.15 wt %.

Regarding `CCS(=O)(=O)O` [Ethanesulfonic acid], the pKa in data set [1] (first value listed) is on record as −2.1.

Regarding `O=C(O)CNC(=O)c1ccccc1` [Hippuric acid], the pKa in data set [1] (first value listed) is given as 3.6.

For the molecule `O=S(=O)(O)CCS(=O)(=O)O` [1,2-Ethanedisulfonic acid], the pKa is reported as −2.1 in data set [1] (first value listed) and −1.5 in data set [1] (second value listed).
